Reference: PubChem BioAssay AID493003 (Sanford-Burnham Center for Chemical Genomics, 2010)
Activity calls are given as the source filed them. How the calls were made is not given here.

The compounds below were run on S. cerevisiae tim10-1 mutant growth, luminescence (assay: tim10-1 yeast growth inhibition potency – luminescence, S. cerevisiae, uHTS hits, dose response (AID 493003);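 further: yeast growth measured after about 22 hours at 25 °C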).

Row | SMILES | IC50
1 | C=CCNc1nc(-c2ccccn2)nnc1-c1ccccc1 | 29.3 µM
2 | Cn1c(NCc2c(O)ccc3ccccc23)nc2ccccc21 | > 100 µM (inactive)
3 | O=C(CN1CCN(S(=O)(=O)c2ccc(Cl)cc2)CC1)Nc1ccc2c(c1)CCC2 | 25.3 µM
4 | CSc1ccc(/C=C/C(=O)c2ccc(NC(=O)C(C)C)cc2)cc1 | 20.4 µM
5 | O=C1NCCc2c1[nH]c1c(Cl)ccc(Cl)c21 | 47.8 µM
6 | Cc1nc(SCC(=O)N2CCN(c3ccccc3)CC2)c2oc3ccccc3c2n1 | 40.7 µM
7 | O=C(Nc1cccnc1)c1cn(-c2ccccc2)nc1-c1cccs1 | 13.2 µM
8 | CCCCCc1ccc(OCCCC[n+]2ccccc2)c(CCCCC)c1 | 24.8 µM
9 | O=C(CSCC(=O)OCn1nnc2ccccc2c1=O)Nc1ccc(Cl)cc1 | 20.2 µM
10 | CCCC(=O)NC(=S)Nc1ccc(Cl)cn1 | 30.1 µM
11 | COc1ccc(CCNC(=O)NC23CC4CC(CC(C4)C2)C3)cc1 | 51 µM
12 | CCOC(=O)C1CCN(C(=O)c2oc3ccc4c(c3c2C)C(O)CC2(CCCCC2)O4)CC1 (stereo not drawn) | 26 µM
13 | Cc1ccc(NC(=S)NCc2ccc3[nH]c4c(c3c2)CCCC4)cc1 | 22.1 µM
14 | FC(F)(F)c1ccc(NC(=S)NC2CCCCC2)cc1 | 27.7 µM
15 | CCCCCCC(=O)N(O)C1CC(=O)N(c2ccc(C)cc2)C1=O (stereo not drawn) | 12.2 µM
16 | CCOc1ccc(-c2n[nH]c(C)c2Oc2ccc(OC)cc2)c(O)c1 | 16.4 µM
17 | Cc1ccc(S(=O)(=O)Nc2ccc(N=Nc3ccc(O)cc3)cc2)cc1 | 20.9 µM
18 | O=C1CC(Sc2nnc(-c3ccccc3)o2)C(=O)N1c1ccccc1 (stereo not drawn) | 28.3 µM
19 | Cc1cccc(NC(=S)N/N=C2/CCCCc3ccccc32)c1 | 9.98 µM
20 | Cc1ccc(NC(=O)c2ccc([N+](=O)[O-])o2)c(C)c1 | 15.7 µM
21 | COc1ccc(C(=O)O/N=C(\N)c2ccc(Br)cc2)cc1 | 11.9 µM
22 | O=C1CC(N2CC=C(c3ccccc3)CC2)C(=O)N1c1ccc(F)cc1 (stereo not drawn) | 14.7 µM
23 | COc1ccc(Br)cc1[C@H]1[C@H]2C=CC[C@@H](C)[C@@H]2C(=O)N1Cc1ccccc1 | 7.88 µM

Row | SMILES | IC50
24 | CCc1c(C)[nH]n(-c2nc(-c3ccccc3)cs2)c1=O | 38.4 µM
25 | O=C1C2C(c3ccccc3)CC=CC2[C@H](c2ccc3ccccc3c2)N1Cc1ccccc1 (stereo partly drawn) | 22.9 µM
26 | O=C(COc1ccc(Cl)cc1Cl)Nc1ccc(S(=O)(=O)NC2=NCCCCC2)cc1 | 24.5 µM
27 | C=CCc1ccc(O)c(-c2ccc(O)c(CC=C)c2)c1 | 48.8 µM
28 | Clc1ccccc1OCc1nnc(-c2ccccc2Br)o1 | 27.9 µM
29 | Cc1cccc(Nc2ncccc2C(=O)NCc2cccs2)c1C | 53.3 µM
30 | Cn1c(NCCCO)nc2c(c1=O)C1(CCCCC1)Cc1ccccc1-2 | 12.3 µM
31 | COc1ccc(C(=O)O/N=C(\N)Cc2ccc(Cl)c(Cl)c2)cc1OC | 0.76 µM
32 | Cc1cc(C)n(-c2nc(-n3nc(C)cc3C)c3c4c(sc3n2)COC(C)(C)C4)n1 | 19.1 µM
33 | Cc1cc(C)n(-c2nnc(NC34CC5CC(CC(C5)C3)C4)nn2)n1 | 46.4 µM
34 | COc1ccc2sc(-c3ccc(S(C)(=O)=O)cc3)c(C#CCO)c2c1 | 24.2 µM
35 | CCN(CC)CCN(C(=O)c1ccc2c(c1)CCCC2)c1nc2ccc(OC)cc2s1 | 22 µM
36 | CCOc1ccccc1C(=O)Nc1cc(OC)ccc1OC | 35.1 µM
37 | Cc1nn(Cc2c(F)c(F)c(F)c(F)c2F)c(C)c1NC(=O)c1ccc(COc2ccccc2Cl)o1 | 60.3 µM
38 | O=C(C1CCC1)N1CCc2cc(S(=O)(=O)N3CCN(c4ccccn4)CC3)ccc21 | 24.3 µM
39 | Cc1nn(Cc2ccc(Cl)cc2)c(C)c1NC(=O)c1noc2c1CCCCC2 | 23.5 µM
40 | Cc1c(C(=O)NC2CCCc3ccccc32)oc2ccccc12 (stereo not drawn) | 20.2 µM
41 | COC(=O)C(C(C)=O)C1=C/C(=N\S(=O)(=O)c2ccc(C)cc2)c2ccccc2C1=O (stereo not drawn) | 8.03 µM
42 | Cc1cc(Nc2nc(Cl)c(Cl)cc2Cl)n(-c2ccccc2)n1 | 27.1 µM
43 | Cc1nn2c(c1-c1ccc(Cl)cc1)N=C(c1ccco1)CC2c1ccccc1 (stereo not drawn) | 23.2 µM
44 | O=C(/C=C/c1ccc2c(c1)OCCCO2)c1ccccc1O | 12.2 µM
45 | Oc1ccccc1-c1nc(NCc2cccnc2)c2ccccc2n1 | 60.5 µM
46 | Oc1ccc(-c2nccc(-c3ccc(F)cc3)n2)cc1 | 50.3 µM

Row | SMILES | IC50
47 | CC1CCN(S(=O)(=O)c2ccc(NC(=O)Cc3cccs3)cc2)CC1 | 46.5 µM
48 | N#C/C(=C/c1ccc(N2CCCCCC2)o1)c1cccc(F)c1 | 14.9 µM
49 | Cc1nc(CN2CCN(S(=O)(=O)c3c(Cl)cc(Br)cc3Cl)CC2)cs1 | 18.6 µM
50 | COc1ccc(C(=O)C(CN2CCCC2)c2ccccc2)cc1 (stereo not drawn) | 19 µM
51 | Cn1c2ccccc2c(=O)c2ccc(C#CC3(O)CCCCC3)cc21 | 24.5 µM
52 | Cc1ccc(-c2csc3ncnc(Nc4ccc(N5CCOCC5)cc4)c23)cc1 | 53.4 µM
53 | O=C(/C(N=Nc1cccc(C(F)(F)F)c1)=C(/O)c1cccs1)C(F)(F)F | > 100 µM (inactive)
54 | CN1CCN(c2ccccc2NC(=O)c2ccc(-c3cccc(Cl)c3)o2)CC1 | 21.4 µM
55 | O=C1C2C3C=CC(CO)(O3)C2C(=O)N1c1ccccc1-c1ccccc1 (stereo not drawn) | 4.92 µM
56 | O=C(c1ccc2c(c1)OCCO2)N1CCN(c2ncc(C(F)(F)F)cc2Cl)CC1 | 68.8 µM
57 | CC1CCCCN1S(=O)(=O)c1ccc(NC(=O)c2ccco2)cc1 (stereo not drawn) | 22.7 µM
58 | O=C(O)c1ccc(C=C(c2nc3ccccc3s2)c2nc3ccccc3s2)cc1 | > 100 µM (inactive)
59 | O=C1C=C(NC(=O)Nc2ccc(Cl)c(Cl)c2)CCC1 | 95.6 µM
60 | C=CCc1ccc(O)c(-c2cc(CC=C)ccc2O)c1 | 68.3 µM
61 | CCCN(Cc1ccccc1)C(=S)Nc1cccc(C(F)(F)F)c1 | 66.1 µM
62 | N#Cc1ccccc1Cn1c(=O)n(C2CCCC2)c(=O)c2ccccc21 | 25.4 µM
63 | COc1cccc(/C=N/n2c(C3CCCCC3)n[nH]c2=S)c1O | 32.3 µM
64 | C=CCN1C(=O)C(O)(CC(=O)c2ccc(-n3cccc3)cc2)c2ccccc21 (stereo not drawn) | 24.1 µM
65 | S=c1[nH]nc(Nc2ccc(Cl)cc2)s1 | 20.8 µM
66 | CCCCc1ccc(NC(=S)Nc2ccc(Nc3ccc(OC)cc3)cc2)cc1 | 12.9 µM
67 | CCc1c(C)c2c(C)nn(-c3ccccc3)c2oc1=O | 17.2 µM
68 | NC(=O)C1CCN(C2CC(=O)N(c3ccc(F)c(Cl)c3)C2=O)CC1 (stereo not drawn) | 21.3 µM
69 | COc1ccc(-n2cc(-c3ccccc3)c3c(=S)nc[nH]c32)cc1 | 13 µM

Row | SMILES | IC50
70 | COc1ccc2sc(N(CCCN(C)C)C(=O)c3ccc(S(=O)(=O)N4CCCc5ccccc54)cc3)nc2c1 | 16.4 µM
71 | NNc1nc(-c2ccccc2)c2cc(Br)ccc2n1 | 10.1 µM
72 | C[C@@H]1CC=C[C@H]2[C@H]1C(=O)N(Cc1ccccc1)[C@H]2c1ccc(-c2ccoc2)cc1F | 12.4 µM
73 | CCOC(=O)c1ccc(NC(=O)c2cccc3c2C(=O)N(CC2CCCO2)C3)cc1 (stereo not drawn) | 55.1 µM
74 | CCOC(=O)Cc1nnc2c(Nc3ccc(Cl)cc3)nc3nonc3n12 | 41.1 µM
75 | N#Cc1c(N)nc(SCC(=O)C23CC4CC(CC(C4)C2)C3)c(C#N)c1-c1ccc(Cl)cc1 | 41.6 µM
76 | COc1cccc(C(=O)CSc2nnnn2C2CCCCC2)c1 | 28.2 µM
77 | Cc1ccc(OCCOc2cccc(Br)c2)c([N+](=O)[O-])n1 | 69.2 µM
78 | O=[N+]([O-])c1ccc2oc(C(O)c3cccc(Cl)c3)cc2c1 (stereo not drawn) | 15.1 µM
79 | Cc1nn(-c2ccc(F)cc2)c(C)c1NS(=O)(=O)c1ccc(Cl)cc1 | 19.9 µM
80 | O=C(NC(=S)NNC(=O)c1ccccc1[N+](=O)[O-])c1ccc(Br)cc1 | 10.1 µM
81 | Cc1ccc(/C(N)=N/OC(=O)c2ccc3c(c2)OCO3)cc1 | 9.34 µM
82 | COc1c(OC(C)=O)ccc(/C=C/c2ccc3ccccc3n2)c1[N+](=O)[O-] | 43.2 µM
83 | Cc1nc(Nc2ccc(Cl)cc2Cl)sc1C(=O)Nc1ccccc1 | > 100 µM (inactive)
84 | Cc1ccc(NC2=C/C(=N\S(=O)(=O)c3cccs3)c3ccccc3C2=O)c(C)c1 | 3.94 µM
85 | Cc1onc(-c2ccc3c(c2)OCO3)c1-c1ccc2[nH]ccc2c1 | 14.3 µM
86 | COc1ccc(-c2nn(-c3ccccc3)cc2/C=C(\CC(=O)O)c2nc3ccccc3s2)cc1OC | 60.8 µM
87 | Cc1nn(C)c(C(=O)NC(=S)Nc2ccc([N+](=O)[O-])cc2)c1Cl | 74.5 µM
88 | S=C(NCCc1ccccc1)Nc1ccc(Nc2ccccc2)cc1 | 24.7 µM
89 | Cc1ccc2nc(N3CCN(Cc4nnnn4Cc4ccccc4)CC3)c(C#N)cc2c1 | 81.3 µM
90 | Cc1nn(Cc2ccc(Cl)cc2)c(C)c1NC(=O)c1c(-c2ccccc2)noc1C | 76.1 µM
91 | Oc1ccccc1-c1csc(-c2ccccc2)n1 | 26.3 µM
92 | CC(Oc1ccc(Cl)cc1Cl)C(=O)NC1=NN(c2ccccc2)C(=O)C1 (stereo not drawn) | 15.2 µM

Row | SMILES | IC50
93 | CCOC(=O)c1cc(-c2cccs2)nc2c1c(C)nn2-c1ccccn1 | 11 µM
94 | Cc1cccc(/C=N/n2c(COc3ccccc3)n[nH]c2=S)c1 | 36.6 µM
95 | Cc1cc(C)c(CSc2ncc(-c3ccc([N+](=O)[O-])cc3)[nH]2)c(C)c1 | 12.9 µM
96 | Cc1cccc(/C=C2\Oc3cc(OS(C)(=O)=O)ccc3C2=O)c1 | 31.9 µM
97 | Fc1cc(F)cc(Nc2nc(Cl)nc(NC3CCCC3)n2)c1 | 37.7 µM
98 | COc1ccc(/C=C2\CCc3ccccc3C2=O)cc1Cn1cccn1 | 25.6 µM
99 | O=C(Nc1ccc(OCC(F)(F)C(F)F)c(C(F)(F)F)c1)c1ccc(Cl)cc1 | 52.8 µM
100 | Cc1ccc(C(=O)NC(=S)Nc2ccccc2C)cc1 | 44.5 µM
101 | O=C(Nc1ccon1)c1cc2c(s1)CCCCCC2 | 39.2 µM
102 | Cc1cccc(NC(=O)c2ccc([N+](=O)[O-])s2)n1 | 6.52 µM
103 | CC1(CC(=O)N/N=C/c2ccc(OCc3ccc(Cl)cc3Cl)cc2)OCCCO1 | 5.77 µM
104 | COc1ccc(-c2[nH]ncc2N=Nc2ccccc2)cc1 | 16.7 µM
105 | C/C(CC(=O)Nc1ccc(N(C)C)cc1)=N\NC(=O)c1ccccn1 | 54.5 µM
106 | O=C(Nc1cccc(C(F)(F)F)c1)N1CCC(c2nc(-c3ccc(F)cc3)no2)CC1 | 74.7 µM
107 | Cc1c(C(=O)N2CCN(c3ccc(C(F)(F)F)cn3)CC2)oc2ccccc12 | 41.6 µM
108 | CC(C)n1c(-c2ccco2)csc1=Nc1cccnc1 | 43 µM
109 | COc1ccc(-c2noc(C3CCCN(C(=O)CCc4ccccc4)C3)n2)cc1 (stereo not drawn) | 17.9 µM
110 | CSc1ccccc1OCc1cc(C(=O)N2CCC(Oc3cccnc3)CC2)no1 | 39.9 µM
111 | NS(=O)(=O)c1ccc(NC(=S)Nc2ccc(Br)c(Cl)c2)cc1 | 31.8 µM
112 | CN1CCN(c2ccccc2NC(=O)c2ccc(-c3ccc(Cl)c(Cl)c3)o2)CC1 | 15.1 µM
113 | N/C(=N\S(=O)(=O)c1cc(C(F)(F)F)cc(C(F)(F)F)c1)c1ccc(Cl)cc1 | 49.7 µM
